Reference: ChEMBL document CHEMBL1201862, “PubChem BioAssay data set” (2004)
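Method: 48-hour compound exposure of cells in 96-well plates, five concentrations, linear interpolation of endpoints. At the GI50, growth is halved.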 The source made the active and inactive calls. Rule as the data show it: active = GI50 up to about 1.1 µM and inactive = higher.

Legend:
Assay in all cases: NCI-60 cell line screen, 48 h
786-0 = tested on: 786-0
A498 = tested on: A498
A549 = tested on: A549
ACHN = tested on: ACHN
BT-549 = tested on: BT-549
CAKI-1 = tested on: CAKI-1
CCRF-CEM = tested on: CCRF-CEM
COLO 205 = tested on: COLO 205
DU-145 = tested on: DU-145
EKVX = tested on: EKVX
HCC 2998 = tested on: HCC 2998
HCT-116 = tested on: HCT-116
HCT-15 = tested on: HCT-15
HL-60 = tested on: HL-60
HOP-62 = tested on: HOP-62
HOP-92 = tested on: HOP-92
HT-29 = tested on: HT-29
Hs-578T = tested on: Hs-578T
IGROV-1 = tested on: IGROV-1
K562 = tested on: K562
KM12 = tested on: KM12
LOX IMVI = tested on: LOX IMVI
M14 = tested on: M14
MCF7 = tested on: MCF7
MDA-MB-231 = tested on: MDA-MB-231
MDA-MB-435 = tested on: MDA-MB-435
MDA-N = tested on: MDA-N
MOLT-4 = tested on: MOLT-4
Malme-3M = tested on: Malme-3M
NCI-H226 = tested on: NCI-H226
NCI-H23 = tested on: NCI-H23
NCI-H460 = tested on: NCI-H460
NCI-H522 = tested on: NCI-H522
NCI/ADR-RES = tested on: NCI/ADR-RES
OVCAR-3 = tested on: OVCAR-3
OVCAR-4 = tested on: OVCAR-4
OVCAR-5 = tested on: OVCAR-5
OVCAR-8 = tested on: OVCAR-8
PC-3 = tested on: PC-3
RPMI-8226 = tested on: RPMI-8226
RXF 393 = tested on: RXF 393
SF-268 = tested on: SF-268
SF-295 = tested on: SF-295
SF-539 = tested on: SF-539
SK-MEL-28 = tested on: SK-MEL-28
SK-MEL-2 = tested on: SK-MEL-2
SK-MEL-5 = tested on: SK-MEL-5
SK-OV-3 = tested on: SK-OV-3
SN12C = tested on: SN12C
SNB-19 = tested on: SNB-19
SNB-75 = tested on: SNB-75
SR = tested on: SR
SW-620 = tested on: SW-620
T47D = tested on: T47D
TK-10 = tested on: TK-10
U-251 = tested on: U-251
UACC-257 = tested on: UACC-257
UACC-62 = tested on: UACC-62
UO-31 = tested on: UO-31

COC(=O)c1c(C)cccc1C1CN=NC12Cc1c(C)cccc1C2=O (configuration not stated)
GI50 (786-0): > 100 µM (inactive)
GI50 (A498): 37.8 µM (inactive)
GI50 (A549): 82.6 µM (inactive)
GI50 (ACHN): 79.3 µM (inactive)
GI50 (BT-549): > 100 µM (inactive)
GI50 (CAKI-1): > 100 µM (inactive)
GI50 (CCRF-CEM): > 100 µM (inactive)
GI50 (COLO 205): 55.5 µM (inactive)
GI50 (DU-145): > 100 µM (inactive)
GI50 (EKVX): 24.8 µM (inactive)
GI50 (HCC 2998): 57.8 µM (inactive)
GI50 (HCT-116): 68.7 µM (inactive)
GI50 (HCT-15): 88.1 µM
GI50 (HL-60): 34.9 µM (inactive)
GI50 (HOP-62): > 100 µM (inactive)
GI50 (HOP-92): 19.9 µM (inactive)
GI50 (HT-29): 90.2 µM (inactive)
GI50 (Hs-578T): 80.2 µM (inactive)
GI50 (IGROV-1): > 100 µM (inactive)
GI50 (K562): 37.2 µM (inactive)
GI50 (KM12): 46.6 µM (inactive)
GI50 (LOX IMVI): 50.9 µM (inactive)
GI50 (M14): 83.2 µM (inactive)
GI50 (MCF7): 55.2 µM (inactive)
GI50 (MDA-MB-231): 82.8 µM (inactive)
GI50 (MDA-MB-435): 39.8 µM (inactive)
GI50 (MDA-N): > 100 µM (inactive)
GI50 (MOLT-4): 37.4 µM (inactive)
GI50 (Malme-3M): 91.4 µM (inactive)
GI50 (NCI-H226): > 100 µM (inactive)
GI50 (NCI-H23): 60 µM (inactive)
GI50 (NCI-H460): 97.3 µM (inactive)
GI50 (NCI-H522): 24.9 µM (inactive)
GI50 (NCI/ADR-RES): 59.6 µM (inactive)
GI50 (OVCAR-3): 45.2 µM (inactive)
GI50 (OVCAR-4): 35.7 µM (inactive)
GI50 (OVCAR-5): > 100 µM (inactive)
GI50 (OVCAR-8): 44.7 µM (inactive)
GI50 (PC-3): 37.2 µM (inactive)
GI50 (RPMI-8226): 46.5 µM (inactive)
GI50 (RXF 393): > 100 µM (inactive)
GI50 (SF-268): > 100 µM (inactive)
GI50 (SF-295): 51.2 µM (inactive)
GI50 (SF-539): > 100 µM (inactive)
GI50 (SK-MEL-28): > 100 µM (inactive)
GI50 (SK-MEL-2): 99.3 µM (inactive)
GI50 (SK-MEL-5): 53 µM (inactive)
GI50 (SK-OV-3): > 100 µM (inactive)
GI50 (SN12C): > 100 µM (inactive)
GI50 (SNB-19): > 100 µM (inactive)
GI50 (SNB-75): 64.1 µM (inactive)
GI50 (SR): > 100 µM (inactive)
GI50 (SW-620): > 100 µM (inactive)
GI50 (T47D): 37.9 µM (inactive)
GI50 (TK-10): > 100 µM (inactive)
GI50 (U-251): > 100 µM (inactive)
GI50 (UACC-257): 43.4 µM (inactive)
GI50 (UACC-62): 40.1 µM (inactive)
GI50 (UO-31): 24 µM (inactive)

CCN(CC)CCOCCOCC1(c2ccc(Cl)c(Cl)c2)CCCCC1
GI50 (786-0): 3.28 µM (inactive)
GI50 (A498): 13.1 µM (inactive)
GI50 (A549): 10.9 µM (inactive)
GI50 (ACHN): 15.2 µM (inactive)
GI50 (BT-549): 12.7 µM (inactive)
GI50 (CAKI-1): 10.1 µM (inactive)
GI50 (CCRF-CEM): 2.99 µM (inactive)
GI50 (COLO 205): 4.41 µM (inactive)
GI50 (DU-145): 8.71 µM (inactive)
GI50 (EKVX): 8.17 µM (inactive)
GI50 (HCC 2998): 4.07 µM (inactive)
GI50 (HCT-116): 5.82 µM (inactive)
GI50 (HCT-15): 4.34 µM
GI50 (HL-60): 5.82 µM (inactive)
GI50 (HOP-62): 7.67 µM (inactive)
GI50 (HOP-92): 6.14 µM (inactive)
GI50 (HT-29): 2.29 µM (inactive)
GI50 (Hs-578T): 2.96 µM (inactive)
GI50 (IGROV-1): 8.43 µM (inactive)
GI50 (K562): 2.82 µM (inactive)
GI50 (KM12): 5.06 µM (inactive)
GI50 (LOX IMVI): 7.08 µM (inactive)
GI50 (M14): 1.7 µM (inactive)
GI50 (MCF7): 6.34 µM (inactive)
GI50 (MDA-MB-231): 10.8 µM (inactive)
GI50 (MDA-MB-435): 4 µM (inactive)
GI50 (MDA-N): 3.65 µM (inactive)
GI50 (MOLT-4): 4.99 µM (inactive)
GI50 (Malme-3M): 5.33 µM (inactive)
GI50 (NCI-H226): 17.9 µM (inactive)
GI50 (NCI-H23): 11 µM (inactive)
GI50 (NCI-H460): 3.39 µM (inactive)
GI50 (NCI-H522): 7.91 µM (inactive)
GI50 (NCI/ADR-RES): 11.4 µM (inactive)
GI50 (OVCAR-3): 8.67 µM (inactive)
GI50 (OVCAR-4): 12.6 µM (inactive)
GI50 (OVCAR-5): 11.5 µM (inactive)
GI50 (OVCAR-8): 13.8 µM (inactive)
GI50 (PC-3): 11.2 µM (inactive)
GI50 (RPMI-8226): 2.51 µM (inactive)
GI50 (RXF 393): 4.26 µM (inactive)
GI50 (SF-268): 11.8 µM (inactive)
GI50 (SF-295): 5.83 µM (inactive)
GI50 (SF-539): 11.2 µM (inactive)
GI50 (SK-MEL-28): 5.22 µM (inactive)
GI50 (SK-MEL-2): 14.9 µM (inactive)
GI50 (SK-MEL-5): 2.19 µM (inactive)
GI50 (SK-OV-3): 11.6 µM (inactive)
GI50 (SN12C): 11.9 µM (inactive)
GI50 (SNB-19): 13.4 µM (inactive)
GI50 (SNB-75): 7.64 µM (inactive)
GI50 (SR): 11 µM (inactive)
GI50 (SW-620): 5.61 µM (inactive)
GI50 (T47D): 3.48 µM (inactive)
GI50 (TK-10): 9.38 µM (inactive)
GI50 (U-251): 9.25 µM (inactive)
GI50 (UACC-257): 2.88 µM (inactive)
GI50 (UACC-62): 8.87 µM (inactive)
GI50 (UO-31): 5.12 µM (inactive)

COC1=CC(=O)c2c(cc(COP(N)(=O)N(CCCl)CCCl)n2C)C1=O (configuration not stated)
GI50 (786-0): 0.0277 µM (active)
GI50 (A498): 2.2 µM (inactive)
GI50 (A549): 0.918 µM (active)
GI50 (ACHN): < 0.0183 µM (active)
GI50 (BT-549): 0.471 µM (active)
GI50 (CAKI-1): < 0.0158 µM (active)
GI50 (CCRF-CEM): < 0.0256 µM (active)
GI50 (COLO 205): 1.39 µM (inactive)
GI50 (DU-145): 1.75 µM (inactive)
GI50 (EKVX): 0.676 µM (active)
GI50 (HCC 2998): 0.446 µM (active)
GI50 (HCT-116): 0.122 µM (active)
GI50 (HCT-15): 1.13 µM
GI50 (HL-60): 0.302 µM (active)
GI50 (HOP-62): 2.18 µM (inactive)
GI50 (HOP-92): 1.41 µM (inactive)
GI50 (HT-29): 0.186 µM (active)
GI50 (Hs-578T): 8.26 µM (inactive)
GI50 (IGROV-1): 0.17 µM (active)
GI50 (K562): 1.52 µM (inactive)
GI50 (KM12): 1.49 µM (inactive)
GI50 (LOX IMVI): 0.0284 µM (active)
GI50 (M14): 0.826 µM (active)
GI50 (MCF7): 0.0767 µM (active)
GI50 (MDA-MB-231): 2.33 µM (inactive)
GI50 (MDA-MB-435): 1.61 µM (inactive)
GI50 (MDA-N): 1.61 µM (inactive)
GI50 (MOLT-4): 0.0141 µM (active)
GI50 (Malme-3M): 1.4 µM (inactive)
GI50 (NCI-H226): 0.14 µM (active)
GI50 (NCI-H23): 0.7 µM (active)
GI50 (NCI-H460): 0.123 µM (active)
GI50 (NCI-H522): 0.0746 µM (active)
GI50 (NCI/ADR-RES): 3.29 µM (inactive)
GI50 (OVCAR-3): 0.342 µM (active)
GI50 (OVCAR-4): 3.52 µM (inactive)
GI50 (OVCAR-5): 1.26 µM (inactive)
GI50 (OVCAR-8): 0.433 µM (active)
GI50 (PC-3): 1.49 µM (inactive)
GI50 (RPMI-8226): 1.37 µM (inactive)
GI50 (RXF 393): 0.457 µM (active)
GI50 (SF-268): < 0.032 µM (active)
GI50 (SF-295): 0.189 µM (active)
GI50 (SF-539): 0.0785 µM (active)
GI50 (SK-MEL-28): 2.9 µM (inactive)
GI50 (SK-MEL-2): 1.84 µM (inactive)
GI50 (SK-MEL-5): 1.36 µM (inactive)
GI50 (SK-OV-3): 1.02 µM (active)
GI50 (SN12C): < 0.0241 µM (active)
GI50 (SNB-19): 2.64 µM (inactive)
GI50 (SNB-75): 0.955 µM (active)
GI50 (SR): 0.0603 µM (active)
GI50 (SW-620): 0.158 µM (active)
GI50 (T47D): < 0.0486 µM (active)
GI50 (TK-10): 1.67 µM (inactive)
GI50 (U-251): 0.0822 µM (active)
GI50 (UACC-257): 3.28 µM (inactive)
GI50 (UACC-62): 0.721 µM (active)
GI50 (UO-31): 0.557 µM (active)
